{
  "source": "patent US8846656B2",
  "about": "“Tetrahydropyrido-pyridine and tetrahydropyrido-pyrimidine compounds and use thereof as C5a receptor modulators” (Novartis AG, priority 2011, dated 2014)",
  "key": {"physchem": {"test": "physchem", "details": "thermodynamic from solid, 24 hr Equilibrium Solubility"}, "CD11b": {"tested_on": "CD11b", "test": "Human whole blood CD11b up-regulation assay", "format": "cell-based", "details": "Homo sapiens, 2 nM human C5a, CD15+ granulocytes, read-out: hCD11b IC50", "outline": "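Heparinized human whole blood (used within 2 h) preincubated 10 min at room temperature with compound in 1% DMSO, then stimulated with 2 nM human C5a for 15 min. After anti-CD15/anti-CD11b staining on ice and RBC lysis, CD11b median fluorescence on 10,000 CD15+ granulocytes measured by flow cytometry.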"}, "human C5aR": {"target": "human C5aR (Homo sapiens (Human), UniProt P21730)", "sequence (P21730 whole entry)": "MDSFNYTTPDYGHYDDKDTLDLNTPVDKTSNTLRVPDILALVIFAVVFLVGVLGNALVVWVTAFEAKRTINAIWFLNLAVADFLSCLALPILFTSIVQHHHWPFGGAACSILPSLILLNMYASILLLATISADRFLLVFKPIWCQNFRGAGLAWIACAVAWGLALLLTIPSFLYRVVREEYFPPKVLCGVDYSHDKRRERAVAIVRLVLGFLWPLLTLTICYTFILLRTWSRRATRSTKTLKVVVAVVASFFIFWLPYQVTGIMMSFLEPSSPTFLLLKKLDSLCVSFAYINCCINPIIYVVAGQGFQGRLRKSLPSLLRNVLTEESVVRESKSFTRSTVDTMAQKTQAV", "test": "FLIPR assay: inhibition of C5a-mediated calcium mobilization", "format": "cell-based", "details": "stable cell line over expressing human C5aR & Gα15, human C5a at EC50 (0.1-0.25 nM)", "outline": "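Stable cell line overexpressing human C5aR with Gα15, measured on FLIPR Tetra. Cells loaded 1 h at 37° C with calcium 5 dye and 2.5 mM probenecid in HBSS/20 mM HEPES/0.1% BSA. Compounds preincubated 30 minutes at room temperature in 1% DMSO before C5a.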"}},
  "data": [
    {"smiles": "CO[C@H]1C[C@H]2CC[C@@H](C1)N2c1nc(-c2c(C)ccc3[nH]nc(C)c23)nc2c1CN(c1cc(C(C)C)ccc1C)CC2", "note": "[Example 19-F, 2-(3,5-Dimethyl-1H-indazol-4-yl)-6-(5-isopropyl-2-methylphenyl)-4-((3-endo)-3-methoxy-8-azabicyclo[3.2.1]octan-8-yl)-5,6,7,8-tetrahydropyrido[4,3-d]pyrimidine]", "values": [
      {"measurement": "solubility thermodynamic at 24 h", "setting": "physchem; oil or lipid", "result": "> 26500", "unit": "µg/mL"},
      {"measurement": "solubility thermodynamic at 24 h", "setting": "physchem; pH 1, simulated gastric fluid", "result": "< 0.5", "unit": "µg/mL"},
      {"measurement": "solubility thermodynamic at 24 h", "setting": "physchem; pH 4.5, aqueous buffer", "result": "< 0.5", "unit": "µg/mL"},
      {"measurement": "solubility thermodynamic at 24 h", "setting": "physchem; pH 5.5, fessif", "result": "< 0.5", "unit": "µg/mL"},
      {"measurement": "solubility thermodynamic at 24 h", "setting": "physchem; pH 6.5, fassif", "result": "< 0.5", "unit": "µg/mL"},
      {"measurement": "solubility thermodynamic at 24 h", "setting": "physchem; pH 6.8, aqueous buffer", "result": "< 0.5", "unit": "µg/mL"},
      {"measurement": "solubility thermodynamic at 24 h", "setting": "physchem; simulated gastric fluid", "result": "< 0.5", "unit": "µg/mL"},
      {"measurement": "solubility thermodynamic at 24 h", "setting": "physchem; water", "result": "< 0.5", "unit": "µg/mL"},
      {"measurement": "IC50", "setting": "CD11b", "result": 13, "unit": "nM"},
      {"measurement": "IC50", "setting": "human C5aR", "result": 4, "unit": "nM"}
    ]},
    {"smiles": "CO[C@@H]1CCN(c2nc(-c3c(C)ccc4[nH]nc(C)c34)nc3c2CN(c2c(F)c(C(F)F)nn2C)CC3)CC1(C)C", "note": "[Example 56-F, (R)-6-(3-(difluoromethyl)-4-fluoro-1-methyl-1H-pyrazol-5-yl)-2-(3,5-dimethyl-1H-indazol-4-yl)-4-(4-methoxy-3,3-dimethylpiperidin-1-yl)-5,6,7,8-tetrahydropyrido[4,3-d]pyrimidine]", "values": [
      {"measurement": "IC50", "setting": "CD11b", "result": 11, "unit": "nM"},
      {"measurement": "IC50", "setting": "human C5aR", "result": 1, "unit": "nM"}
    ]},
    {"smiles": "Cc1ccc(C(C)C)cc1N1CCc2nc(-c3c(C)ccc4[nH]nc(C)c34)nc(OCC(F)F)c2C1", "note": "[Example 63-E, 4-(2,2-difluoroethoxy)-2-(3,5-dimethyl-1H-indazol-4-yl)-6-(5-isopropyl-2-methylphenyl)-5,6,7,8-tetrahydropyrido[4,3-d]pyrimidine]", "values": [
      {"measurement": "IC50", "setting": "CD11b", "result": 29, "unit": "nM"},
      {"measurement": "IC50", "setting": "human C5aR", "result": 23, "unit": "nM"}
    ]},
    {"smiles": "CNCCOc1nc(-c2c(C)ccc3[nH]nc(C)c23)nc2c1CN(c1cc(C(C)C)ccc1C)CC2", "note": "[Example 63-G, 2-((2-(3,5-dimethyl-1H-indazol-4-yl)-6-(5-isopropyl-2-methylphenyl)-5,6,7,8-tetrahydropyrido[4,3-d]pyrimidin-4-yl)oxy)-N-methylethanamine]", "values": [
      {"measurement": "IC50", "setting": "CD11b", "result": 197, "unit": "nM"},
      {"measurement": "IC50", "setting": "human C5aR", "result": 31, "unit": "nM"}
    ]},
    {"smiles": "Cc1ccc(C(C)C)cc1N1CCc2nc(-c3c(C)ccc4[nH]nc(C)c34)nc(OCCN3CCOCC3)c2C1", "note": "[Example 63-I, 4-(2-((2-(3,5-dimethyl-1H-indazol-4-yl)-6-(5-isopropyl-2-methylphenyl)-5,6,7,8-tetrahydropyrido[4,3-d]pyrimidin-4-yl)oxy)ethyl)morpholine]", "values": [
      {"measurement": "IC50", "setting": "CD11b", "result": 60, "unit": "nM"},
      {"measurement": "IC50", "setting": "human C5aR", "result": 32, "unit": "nM"}
    ]},
    {"smiles": "Cc1ccc(C(C)C)cc1N1CCc2nc(-c3c(C)ccc4[nH]nc(C)c34)nc(N3CC(N(C)C)C3)c2C1", "note": "[Example 65-A, 1-(2-(3,5-Dimethyl-1H-indazol-4-yl)-6-(5-isopropyl-2-methylphenyl)-5,6,7,8-tetrahydropyrido[4,3-d]pyrimidin-4-yl)-N,N-dimethylazetidin-3-amine]", "values": [
      {"measurement": "IC50", "setting": "CD11b", "result": 30, "unit": "nM"},
      {"measurement": "IC50", "setting": "human C5aR", "result": 1, "unit": "nM"}
    ]},
    {"smiles": "Cc1ccc(C(C)C)cc1N1CCc2nc(-c3c(C)ccc4[nH]nc(C)c34)nc(N3CC[C@@H](N(C)C)C3)c2C1", "note": "[Example 65-B, (R)-1-(2-(3,5-dimethyl-1H-indazol-4-yl)-6-(5-isopropyl-2-methylphenyl)-5,6,7,8-tetrahydropyrido[4,3-d]pyrimidin-4-yl)-N,N-dimethylpyrrolidin-3-amine]", "values": [
      {"measurement": "IC50", "setting": "CD11b", "result": 16, "unit": "nM"},
      {"measurement": "IC50", "setting": "human C5aR", "result": 2, "unit": "nM"}
    ]},
    {"smiles": "Cc1ccc(C(C)C)cc1N1CCc2nc(-c3c(C)ccc4[nH]nc(C)c34)nc(N3CCOC[C@H]3C)c2C1", "note": "[Example 65-K, (R)-4-(2-(3,5-dimethyl-1H-indazol-4-yl)-6-(5-isopropyl-2-methylphenyl)-5,6,7,8-tetrahydropyrido[4,3-d]pyrimidin-4-yl)-3-methylmorpholine]", "values": [
      {"measurement": "IC50", "setting": "CD11b", "result": 26, "unit": "nM"},
      {"measurement": "IC50", "setting": "human C5aR", "result": 2, "unit": "nM"}
    ]},
    {"smiles": "CCOC1CN(c2nc(-c3c(C)ccc4[nH]nc(C)c34)nc3c2CN(c2c(Cl)c(C4CC4)nn2C)CC3)C1", "note": "[Example 68-B, 6-(4-Chloro-3-cyclopropyl-1-methyl-1H-pyrazol-5-yl)-2-(3,5-dimethyl-1H-indazol-4-yl)-4-(3-ethoxyazetidin-1-yl)-5,6,7,8-tetrahydropyrido[4,3-d]pyrimidine]", "values": [
      {"measurement": "IC50", "setting": "CD11b", "result": 17, "unit": "nM"},
      {"measurement": "IC50", "setting": "human C5aR", "result": 2, "unit": "nM"}
    ]},
    {"smiles": "Cc1ccc2[nH]nc(C)c2c1-c1nc2c(c(N3CC[C@@H](N(C)C)C3)n1)CN(c1c(Cl)c(C3CC3)nn1C)CC2", "note": "[Example 68-C, (R)-1-(6-(4-chloro-3-cyclopropyl-1-methyl-1H-pyrazol-5-yll)-2-(3,5-dimethyl-1H-indazol-4-yl)-5,6,7,8-tetrahydropyrido[4,3-d]pyrimidin-4-yl)-N,N-dimethylpyrrolidin-3-amine]", "values": [
      {"measurement": "IC50", "setting": "CD11b", "result": 69, "unit": "nM"},
      {"measurement": "IC50", "setting": "human C5aR", "result": 16, "unit": "nM"}
    ]},
    {"smiles": "Cc1ccc2[nH]nc(C)c2c1-c1nc2c(c(N3CC(N(C)C)C3)n1)CN(c1c(Cl)c(C3CC3)nn1C)CC2", "note": "[Example 69-J, 1-(6-(4-chloro-3-cyclopropyl-1-methyl-1H-pyrazol-5-yl)-2-(3,5-dimethyl-1H-indazol-4-yl)-5,6,7,8-tetrahydropyrido[4,3-d]pyrimidin-4-yl)-N,N-dimethylazetidin-3-amine]", "values": [
      {"measurement": "IC50", "setting": "CD11b", "result": 112, "unit": "nM"},
      {"measurement": "IC50", "setting": "human C5aR", "result": 67, "unit": "nM"}
    ]},
    {"smiles": "CCn1nc(C2CC2)c(Cl)c1N1CCc2nc(-c3c(C)ccc4[nH]nc(C)c34)nc(N3CCOC[C@H]3C)c2C1", "note": "[Example 70-G, (R)-4-(6-(4-Chloro-3-cyclopropyl-1-ethyl-1H-pyrazol-5-yl)-2-(3,5-dimethyl-1H-indazol-4-yl)-5,6,7,8-tetrahydropyrido[4,3-d]pyrimidin-4-yl)-3-methylmorpholine]", "values": [
      {"measurement": "IC50", "setting": "CD11b", "result": 19, "unit": "nM"},
      {"measurement": "IC50", "setting": "human C5aR", "result": 9, "unit": "nM"}
    ]},
    {"smiles": "Cc1ccc2[nH]nc(C)c2c1-c1nc2c(c(N3CCOC[C@H]3C)n1)CN(c1c(Cl)c(C3CC3)nn1C)CC2", "note": "[Example 70-J]", "values": [
      {"measurement": "IC50", "setting": "CD11b", "result": 39, "unit": "nM"},
      {"measurement": "IC50", "setting": "human C5aR", "result": 12, "unit": "nM"}
    ]},
    {"smiles": "CCn1nc(C2CC2)c(Cl)c1N1CCc2nc(-c3c(C)ccc4[nH]nc(C)c34)nc(N3CC(N(C)C)C3)c2C1", "note": "[Example 70-K, 1-(6-(4-chloro-3-cyclopropyl-1-ethyl-1H-pyrazol-5-yl)-2-(3,5-dimethyl-1H-indazol-4-yl)-5,6,7,8-tetrahydropyrido[4,3-d]pyrimidin-4-yl)-N,N-dimethylazetidin-3-amine]", "values": [
      {"measurement": "IC50", "setting": "CD11b", "result": 37, "unit": "nM"},
      {"measurement": "IC50", "setting": "human C5aR", "result": 20, "unit": "nM"}
    ]},
    {"smiles": "CCn1nc(C2CC2)c(F)c1N1CCc2nc(-c3c(C)ccc4[nH]nc(C)c34)nc(N3CC[C@@H](OC)C(C)(C)C3)c2C1", "note": "[Example 71-B, (R)-6-(3-Cyclopropyl-1-ethyl-4-fluoro-1H-pyrazol-5-yl)-2-(3,5-dimethyl-1H-indazol-4-yl)-4-(4-methoxy-3,3-dimethylpiperidin-1-yl)-5,6,7,8-tetrahydropyrido[4,3-d]pyrimidine]", "values": [
      {"measurement": "IC50", "setting": "CD11b", "result": 10, "unit": "nM"},
      {"measurement": "IC50", "setting": "human C5aR", "result": 2, "unit": "nM"}
    ]}
  ]
}
